Activity calls are given as the source filed them. No cut-off for these calls is given here.
Tests used:
Mus musculus [1] = test: Immunomodulatory effect in Leishmania major infected C57BL/6 mouse assessed as levels of CD11c+ and MHC-2+ in dendritic cells at 20 ug administered topically measured after 48 hrs by FACS method; type: functional, organism-based
[2] = Induction of apoptosis in C57BL/6 mouse dendritic cell assessed as early apoptotic cells at 50uM after 18 hrs using annexin V-propidium iodide staining by flow cytometry; type: cell-based
dendritic [3] = test: Immunomodulatory effect in Leishmania major infected C57BL/6 mouse dendritic cells assessed as TNF-alpha production after 18 hrs by ELISA; type: functional, cell-based
dendritic [4] = test: Immunomodulatory effect in Leishmania major Leishmania major infected sC57BL/6 mouse bone marrow dendritic cells assessed as CD86 expression at 5 to 50 uM after 18 hrs by flow cytometry; type: functional, cell-based; details: C57BL/6
dendritic [5] = test: Immunomodulatory effect in uninfected C57BL/6 mouse dendritic cells assessed as IL-12p40 production after 18 hrs by ELISA; type: functional, cell-based
dendritic [6] = test: Immunomodulatory effect in Leishmania major uninfected C57BL/6 mouse bone marrow dendritic cells assessed as CD40 expression at 5 to 50 uM after 18 hrs by flow cytometry; type: functional, cell-based
Leishmania major = test: Antileishmenia activity against Leishmania major amastigotes infected in C57BL/6 mouse dendritic cells assessed as decrease in intracellular parasite amastigotes level at 50 uM by light microscopy; type: functional, organism-based
[7] = Induction of apoptosis in C57BL/6 mouse dendritic cells assessed as late apoptotic cells at 50 uM after 72 hrs using annexin V-propidium iodide and annexin V staining by flow cytometry; type: cell-based
[8] = Induction of apoptosis in C57BL/6 mouse dendritic cells assessed as early apoptotic cells at 50 uM after 18 hrs using annexin V-propidium iodide and annexin V staining by flow cytometry; type: cell-based
[9] = Induction of apoptosis in C57BL/6 mouse dendritic cells assessed as late apoptotic cells at 5 uM after 18 hrs using annexin V-propidium iodide and annexin V staining by flow cytometry; type: cell-based
[10] = Induction of apoptosis in C57BL/6 mouse dendritic cells assessed as viable cells at 50 uM after 18 hrs using annexin V-propidium iodide and annexin V staining by flow cytometry; type: cell-based; details: read-out: Activity
dendritic [11] = test: Induction of nitric oxide release in Leishmania major amastigotes infected C57BL/6 mouse dendritic cells assessed as nitrite production after 72 hrs; type: functional, cell-based
[12] = Induction of apoptosis in C57BL/6 mouse dendritic cells assessed as late apoptotic cells at 5 uM after 72 hrs using annexin V-propidium iodide and annexin V staining by flow cytometry; type: cell-based
[13] = Cytotoxicity against C57BL/6 mouse immature bone marrow-derived dendritic cells assessed as reduction of cell survival at >100 uM after 48 hrs by propidium iodide exclusion staining based flow cytometry
dendritic [14] = test: Immunomodulatory effect in Leishmania major infected C57BL/6 mouse dendritic cells assessed as IL-12p70 production after 18 hrs by ELISA; type: functional, cell-based
dendritic [15] = test: Immunomodulatory effect in uninfected C57BL/6 mouse dendritic cells assessed as IL-10 production after 18 hrs by ELISA; type: functional, cell-based
[16] = Induction of apoptosis in C57BL/6 mouse dendritic cells assessed as late apoptotic cells at 25 uM after 72 hrs using annexin V-propidium iodide and annexin V staining by flow cytometry; type: cell-based
dendritic [17] = test: Immunomodulatory effect in uninfected C57BL/6 mouse dendritic cells assessed as TNF-alpha production after 18 hrs by ELISA; type: functional, cell-based
dendritic [18] = test: Effect on antigen specific CD8+ T cells expansion by Leishmania major amastigotes infected C57BL/6 mouse dendritic cells assessed as increase in [3H]thymidine incorporation at 50 uM after 72 hrs; type: functional, cell-based
[19] = Induction of apoptosis in C57BL/6 mouse dendritic cells assessed as necrotic cells at 25 uM after 18 hrs using annexin V-propidium iodide and annexin V staining by flow cytometry; type: cell-based
[20] = Induction of apoptosis in C57BL/6 mouse dendritic cells assessed as necrotic cells at 50 uM after 72 hrs using annexin V-propidium iodide and annexin V staining by flow cytometry; type: cell-based
[21] = Induction of apoptosis in C57BL/6 mouse dendritic cells assessed as late apoptotic cells at 25 uM after 18 hrs using annexin V-propidium iodide and annexin V staining by flow cytometry; type: cell-based
[22] = Induction of apoptosis in C57BL/6 mouse dendritic cells assessed as early apoptotic cells at 5 uM after 72 hrs using annexin V-propidium iodide and annexin V staining by flow cytometry; type: cell-based
[23] = Induction of apoptosis in C57BL/6 mouse dendritic cells assessed as early apoptotic cells at 50 uM after 72 hrs using annexin V-propidium iodide and annexin V staining by flow cytometry; type: cell-based
dendritic [24] = test: Immunomodulatory effect in uninfected C57BL/6 mouse dendritic cells assessed as IL-12p70 production after 18 hrs by ELISA; type: functional, cell-based
dendritic [25] = test: Immunomodulatory effect in Leishmania major uninfected C57BL/6 mouse bone marrow dendritic cells assessed as CD54 expression at 5 to 50 uM after 18 hrs by flow cytometry; type: functional, cell-based
Mus musculus [26] = test: Immunomodulatory effect in Leishmania major infected C57BL/6 mouse assessed as levels of CD11c+ and MHC-2+ in dendritic cells at 200 ug administered topically measured after 48 hrs by FACS method; type: functional, organism-based
dendritic [27] = test: Immunomodulatory effect in Leishmania major infected C57BL/6 mouse dendritic cells assessed as IL-10 production after 18 hrs by ELISA; type: functional, cell-based
[28] = Induction of apoptosis in C57BL/6 mouse dendritic cells assessed as early apoptotic cells at 25 uM after 18 hrs using annexin V-propidium iodide and annexin V staining by flow cytometry; type: cell-based
dendritic [29] = test: Immunomodulatory effect in Leishmania major uninfected C57BL/6 mouse bone marrow dendritic cells assessed as CD86 expression at 5 to 50 uM after 18 hrs by flow cytometry; type: functional, cell-based
[30] = Induction of apoptosis in C57BL/6 mouse dendritic cells assessed as viable cells at 25 uM after 72 hrs using annexin V-propidium iodide and annexin V staining by flow cytometry; type: cell-based; details: read-out: Activity
[31] = Induction of apoptosis in C57BL/6 mouse dendritic cells assessed as necrotic cells at 5 uM after 18 hrs using annexin V-propidium iodide and annexin V staining by flow cytometry; type: cell-based
[32] = Induction of apoptosis in C57BL/6 mouse dendritic cells assessed as late apoptotic cells at 50 uM after 18 hrs using annexin V-propidium iodide and annexin V staining by flow cytometry; type: cell-based
dendritic [33] = test: Immunomodulatory effect in Leishmania major infected C57BL/6 mouse dendritic cells assessed as IL-12p40 production after 18 hrs by ELISA; type: functional, cell-based
[34] = Induction of apoptosis in C57BL/6 mouse dendritic cells assessed as […] viable cells at 25 uM after 18 hrs using annexin V-propidium iodide and annexin V staining by flow cytometry; type: cell-based; details: read-out: Activity
dendritic [35] = test: Immunomodulatory effect in Leishmania major uninfected C57BL/6 mouse bone marrow dendritic cells assessed as expression of MHC-2 at 5 to 50 uM after 18 hrs by flow cytometry; type: functional, cell-based
dendritic [36] = test: Immunomodulatory effect in Leishmania major Leishmania major infected sC57BL/6 mouse bone marrow dendritic cells assessed as CD54 expression at 5 to 50 uM after 18 hrs by flow cytometry; type: functional, cell-based; details: C57BL/6
[37] = Cytotoxicity against C57BL/6 mouse immature bone marrow-derived dendritic cells at 5 uM after 72 to 96 hrs by propidium iodide exclusion staining based flow cytometry; type: cell-based
[38] = Induction of apoptosis in C57BL/6 mouse dendritic cells assessed as necrotic cells at 25 uM after 72 hrs using annexin V-propidium iodide and annexin V staining by flow cytometry; type: cell-based
dendritic [39] = test: Immunomodulatory effect in Leishmania major Leishmania major infected sC57BL/6 mouse bone marrow dendritic cells assessed as MHC-2 expression at 5 to 50 uM after 18 hrs by flow cytometry; type: functional, cell-based; details: C57BL/6
dendritic [40] = test: Immunomodulatory effect in Leishmania major Leishmania major infected sC57BL/6 mouse bone marrow dendritic cells assessed as CD40 expression at 5 to 50 uM after 18 hrs by flow cytometry; type: functional, cell-based; details: C57BL/6
[41] = Induction of apoptosis in C57BL/6 mouse dendritic cells assessed as viable cells at 5 uM after 18 hrs using annexin V-propidium iodide and annexin V staining by flow cytometry; type: cell-based; details: read-out: Activity
dendritic [42] = test: Effect on antigen specific CD4+ T cells expansion by Leishmania major amastigotes infected C57BL/6 mouse dendritic cells assessed as increase in [3H]thymidine incorporation at 50 uM after 72 hrs; type: functional, cell-based
[43] = Induction of apoptosis in C57BL/6 mouse dendritic cells assessed as necrotic cells at 50 uM after 18 hrs using annexin V-propidium iodide and annexin V staining by flow cytometry; type: cell-based
[44] = Induction of apoptosis in C57BL/6 mouse dendritic cells assessed as necrotic cells at 5 uM after 72 hrs using annexin V-propidium iodide and annexin V staining by flow cytometry; type: cell-based
[45] = Induction of apoptosis in C57BL/6 mouse dendritic cells assessed as viable cells at 50 uM after 72 hrs using annexin V-propidium iodide and annexin V staining by flow cytometry; type: cell-based; details: read-out: Activity
[46] = Induction of apoptosis in C57BL/6 mouse dendritic cells assessed as viable cells at 5 uM after 72 hrs using annexin V-propidium iodide and annexin V staining by flow cytometry; type: cell-based; details: read-out: Activity
Homo sapiens = species on record: Homo sapiens; test: Plasma concentration in leishmaniasis patient during last week of 4-week treatment course; type: ADME, organism-based; details: in vivo
[47] = Induction of apoptosis in C57BL/6 mouse dendritic cells assessed as early apoptotic cells at 5 uM after 18 hrs using annexin V-propidium iodide and annexin V staining by flow cytometry; type: cell-based

CCCCCCCCCCCCCCCCOP(=O)([O-])OCC[N+](C)(C)C [MILTEFOSINE]
Activity (Mus musculus [1]): inactive
Activity [2]: 43.18%
Activity (dendritic [3]): inactive
Activity (dendritic [4]): inactive
Activity (dendritic [5]): inactive
Activity (dendritic [6]): inactive
inhibition (Leishmania major): Dose-dependent effect
Activity [7]: 54.56%
Activity [8]: 23.15%
Activity [9]: 11.41%
viability at 18 h, 50 µM [10]: 51.7%
Activity (dendritic [11]): inactive
Activity [12]: 35.67%
Activity [13]: Toxic
Activity (dendritic [14]): inactive
Activity (dendritic [15]): inactive
Activity [16]: 22.72%
Activity (dendritic [17]): inactive
Activity (dendritic [18]): inactive
Activity [19]: 5.83%
Activity [20]: 6.56%
Activity [21]: 15.89%
Activity [22]: 23.15%
Activity [23]: 21.16%
Activity (dendritic [24]): inactive
Activity (dendritic [25]): inactive
Activity (Mus musculus [26]): inactive
Activity (dendritic [27]): inactive
Activity [28]: 19.91%
Activity (dendritic [29]): inactive
viability at 72 h, 25 µM [30]: 28.9%
Activity [31]: 3.91%
Activity [32]: 18.57%
Activity (dendritic [33]): inactive
viability at 18 h, 25 µM [34]: 58.4%
Activity (dendritic [35]): inactive
Activity (dendritic [36]): inactive
Activity [37]: Active
Activity [38]: 6.2%
Activity (dendritic [39]): inactive
Activity (dendritic [40]): inactive
viability at 18 h, 5 µM [41]: 84%
Activity (dendritic [42]): inactive
Activity [43]: 6.6%
Activity [44]: 5.16%
viability at 72 h, 50 µM [45]: 17.7%
viability at 72 h, 5 µM [46]: 36%
Cp (Homo sapiens): 30.8 µg/mL
Activity [47]: 20.7%

— ChEMBL document CHEMBL1212797, “Miltefosine efficiently eliminates Leishmania major amastigotes from infected murine dendritic cells without altering their immune functions” (Antimicrob Agents Chemother, 2010)
